The record followed here is patent publication US11919905B2, “Substituted benzo[f]imidazo[1,2-a][1,4]diazepines as anesthetics” (HANGZHOU ADAMERCK PHARMLABS INC., priority 2017, dated 2024).

Series [1] concerns ICR mice. The series can be described thus: Effective dose and lethal dose of intravenous administration in mice. The series is classed as in vivo. The following applies: single bolus via tail vein, male ICR mice; for minimal effective dose: Mus musculus, iv, read-out: Effective dose (lowest dose causing the righting reflex to disappear). The method, then:
ICR mice (males, 18-25 g) were randomly grouped and were fast given a single bolus of different doses of test drug via the tail vein, and the lowest dose causing the righting reflex to disappear (effective dose) and the dose causing animal death (lethal dose) were recorded, and the treatment windows (lethal dose/effective dose) were calculated.

Series [2] relates to ICR mice. Description: Disappearance of righting reflex in mice induced by drugs (single i.v. bolus). The class given is in vivo. To be noted: 100 mg/kg single bolus via tail vein, male ICR mice. The method, then:
After ICR mice (male, 18-25 g) were fast injected with the same dose (100 mg/kg) of the test drug in a single bolus via the tail vein, the incubation period and the duration of disappearance of the righting reflex in mice were recorded. Wherein, the incubation period refers to the time from the start of administration to the disappearance of the animal's righting reflex, and the duration refers to the time from the disappearance of the righting reflex to the recovery.

Structures are written as SMILES.

For `COC(=O)CC[C@@H]1N=C(c2ccccn2)c2cc(F)c(C)cc2-n2c(C)cnc21.O=S(=O)(O)c1ccccc1` [Compound 1-1], in the series on ICR mice [1], the minimal effective dose is 60 mg/kg, the “Lethal dose (dose causing animal death)” value came to 320 mg/kg and the “Treatment window (lethal dose/effective dose)” value is listed as 5.3. Further, in the series with ICR mice [2], the “Duration (time from disappearance of righting reflex to recovery)” value (“Duration” for short) came out at 7.00 min and the “Incubation period (time from start of administration to disappearance of righting reflex)” value (“Incubation period” for short) was found to be 0.35 min.
Regarding `COC(=O)CC[C@@H]1N=C(c2ccccn2)c2cc(F)c(C)cc2-n2c(C)cnc21.Cl` [Compound 1-3], in the series with ICR mice [1], the minimal effective dose is 60 mg/kg, the “Lethal dose (dose causing animal death)” value was found to be 280 mg/kg and the “Treatment window (lethal dose/effective dose)” value was found to be 4.67. Also, in the series with ICR mice [2], the “Duration” value was found to be 7.20 min and the “Incubation period” value was 0.30 min.
Consider `COC(=O)CC[C@@H]1N=C(c2cccnc2)c2cc(F)c(C)cc2-n2c(C)cnc21.Cc1ccc(S(=O)(=O)O)cc1` [Compound 1-4], for which, in the series on ICR mice [1], the minimal effective dose worked out at 80 mg/kg, the “Lethal dose (dose causing animal death)” value worked out at 280 mg/kg and the “Treatment window (lethal dose/effective dose)” value worked out at 3.5. Also, in the series with ICR mice [2], the “Duration” value amounted to 9.32 min and the “Incubation period” value was 0.37 min.
On to `COC(=O)CC[C@@H]1N=C(c2ccncc2)c2cc(F)c(C)cc2-n2c(C)cnc21.Cc1ccc(S(=O)(=O)O)cc1` [Compound 1-5], for which, in the series with ICR mice [1], the minimal effective dose was found to be 60 mg/kg, the “Lethal dose (dose causing animal death)” value was found to be 320 mg/kg and the “Treatment window (lethal dose/effective dose)” value amounted to 5.3. Further, in the series with ICR mice [2], the “Duration” value came to 8.21 min and the “Incubation period” value is reported as 0.40 min.
Turning to `COC(=O)CC[C@@H]1N=C(c2ccccn2)c2cc(Br)c(C)cc2-n2c(C)cnc21.Cc1ccc(S(=O)(=O)O)cc1` [Compound 1-6], in the series with ICR mice [1], the minimal effective dose came out at 100 mg/kg, the “Lethal dose (dose causing animal death)” value was 380 mg/kg and the “Treatment window (lethal dose/effective dose)” value stood at 3.8. Also, in the series on ICR mice [2], the “Duration” value amounted to 7.98 min and the “Incubation period” value came to 0.47 min.
`COC(=O)CC[C@@H]1N=C(c2ccccn2)c2cc([N+](=O)[O-])c(C)cc2-n2c(C)cnc21.Cc1ccc(S(=O)(=O)O)cc1` [Compound 1-7]: in the series with ICR mice [1], the minimal effective dose was 40 mg/kg, the “Lethal dose (dose causing animal death)” value worked out at 240 mg/kg and the “Treatment window (lethal dose/effective dose)” value is listed as 6. Besides, in the series on ICR mice [2], the “Duration” value was determined as 8.39 min and the “Incubation period” value stood at 0.60 min.
For the compound `COC(=O)CC[C@@H]1N=C(c2ccccn2)c2cc(C(F)(F)F)c(C)cc2-n2c(C)cnc21.Cc1ccc(S(=O)(=O)O)cc1` [Compound 1-8], in the series on ICR mice [1], the minimal effective dose was found to be 40 mg/kg, the “Lethal dose (dose causing animal death)” value came to 260 mg/kg and the “Treatment window (lethal dose/effective dose)” value worked out at 6.5. Besides, in the series on ICR mice [2], the “Duration” value turned out to be 8.60 min and the “Incubation period” value worked out at 0.55 min.
Turning to `COC(=O)CC[C@@H]1N=C(c2ccccn2)c2cc(OC)c(C)cc2-n2c(C)cnc21.Cc1ccc(S(=O)(=O)O)cc1` [Compound 1-9], in the series on ICR mice [1], the minimal effective dose was 60 mg/kg, the “Lethal dose (dose causing animal death)” value is listed as 260 mg/kg and the “Treatment window (lethal dose/effective dose)” value was 4.3. In addition, in the series with ICR mice [2], the “Duration” value is recorded as 8.77 min and the “Incubation period” value was 0.63 min.
As for `COC(=O)CC[C@@H]1N=C(c2ccccn2)c2cc(OC)c(OC)cc2-n2c(C)cnc21.Cc1ccc(S(=O)(=O)O)cc1` [Compound 1-10], in the series with ICR mice [1], the minimal effective dose is 80 mg/kg, the “Lethal dose (dose causing animal death)” value came to 300 mg/kg and the “Treatment window (lethal dose/effective dose)” value turned out to be 3.75. Further, in the series with ICR mice [2], the “Duration” value turned out to be 7.86 min and the “Incubation period” value was 0.48 min.
Turning to `COC(=O)CC[C@@H]1N=C(c2ccccn2)c2cc(F)c(F)cc2-n2c(C)cnc21.Cc1ccc(S(=O)(=O)O)cc1` [Compound 1-11], in the series on ICR mice [1], the minimal effective dose was found to be 80 mg/kg, the “Lethal dose (dose causing animal death)” value came out at 320 mg/kg and the “Treatment window (lethal dose/effective dose)” value is reported as 4. In the series on ICR mice [2], the “Duration” value is recorded as 7.28 min and the “Incubation period” value worked out at 0.53 min.
In the same order, the values of `COC(=O)CC[C@@H]1N=C(c2ccccn2)c2cc(Cl)c(Cl)cc2-n2c(C)cnc21.Cc1ccc(S(=O)(=O)O)cc1` [Compound 1-12] are 60 mg/kg, 300 mg/kg, 5, 8.35 min and 0.42 min.
On to `COC(=O)CC[C@@H]1N=C(c2ccccn2)c2cc(C)c(C)cc2-n2c(C)cnc21.Cc1ccc(S(=O)(=O)O)cc1` [Compound 1-13], for which, in the series with ICR mice [1], the minimal effective dose stood at 80 mg/kg, the “Lethal dose (dose causing animal death)” value is listed as 320 mg/kg and the “Treatment window (lethal dose/effective dose)” value amounted to 4.
With `COC(=O)CC[C@@H]1N=C(c2cccnc2)c2cc(F)c(C(F)(F)F)cc2-n2c(C)cnc21.Cc1ccc(S(=O)(=O)O)cc1` [Compound 1-14], in the series with ICR mice [1], the minimal effective dose was 100 mg/kg, the “Lethal dose (dose causing animal death)” value is 360 mg/kg and the “Treatment window (lethal dose/effective dose)” value is given as 3.6. Also, in the series on ICR mice [2], the “Duration” value is listed as 6.30 min and the “Incubation period” value is listed as 0.58 min.
For `COC(=O)CC[C@@H]1N=C(c2ccccn2)c2cc(OC)c(F)cc2-n2c(C)cnc21.Cc1ccc(S(=O)(=O)O)cc1` [Compound 1-15] the same measures were 60 mg/kg, 320 mg/kg, 5.3, 9.02 min and 0.54 min.
Consider `CCOC(=O)CC[C@@H]1N=C(c2cccnc2)c2cc(C)c(F)cc2-n2c(C)cnc21.Cc1ccc(S(=O)(=O)O)cc1` [Compound 1-16], for which, in the series on ICR mice [1], the minimal effective dose worked out at 40 mg/kg, the “Lethal dose (dose causing animal death)” value came to 280 mg/kg and the “Treatment window (lethal dose/effective dose)” value was found to be 7. Further, in the series with ICR mice [2], the “Duration” value amounted to 9.35 min and the “Incubation period” value is recorded as 0.86 min.
For `CCOC(=O)CC[C@@H]1N=C(c2ccccn2)c2cc(CC)c(OC)cc2-n2c(C)cnc21.Cc1ccc(S(=O)(=O)O)cc1` [Compound 1-17] the same measures were 80 mg/kg, 360 mg/kg, 4.5, 7.24 min and 0.75 min.
